Assay results: patent publication US5281605A, “Novel xanthine derivatives” (Sandoz Ltd., priority 1986, dated 1994)
Where two headings read alike, the source gives them in different places.

Experiments:
Isolated human bronchus = experiment: Bronchospasmolytic activity in vitro: isolated human bronchus (A.1.2); conditions: read-out: EC50, relaxation of human bronchus rings
Method: (§1) The trachea is excised from freshly sacrificed guineα-pigs and transected in the transverse plane to give rings of tissue of ca. 2 mm. Individual rings are mounted vertically on stainless steel supports, one of which is fixed at the base of an organ bath, the other being attached to a tension transducer. The rings are bathed in modified Tyrode solution at 37° C. and gassed with O2 /CO2 (95:5, v/v). Rings prepared in this manner, preloaded with 1 g, generate spontaneous tone and, after a period of equilibration, relax on addition of spasmolytic drugs. Tension can be enhanced by addition of carbachol (10^-6 M) or histamine (10^-4 M). To ascertain spasmolytic activity, test substances are dissolved in physiological saline and added in increasing quantities to the organ bath at 5 min. intervals to provide a cumulative concentration-effect curve.
1.2. Isolated human bronchus:
Rings of bronchus (ca. 2 mm depth) are dissected from samples of human lung, resected from patients with lung carcinoma but grossly free of disease. Activity is determined employing the methodology of example A.1.1.

[1] = Level of activity of R- versus S-isomers in animal models; assay type: in vivo; conditions: R-isomers of examples 22 and 24 compared with S-isomers of examples 23 and 25 respectively
[2] = test system: bombesin-induced bronchospasm; experiment: Bronchodilator activity in vivo: inhibition of bombesin-induced bronchospasm (A.2.1); conditions: Cavia porcellus, iv; anaesthetised guinea pigs; i.v. at the height of bombesin-induced bronchospasm; read-out: ED50, reversal of bombesin-induced bronchospasm
Method: 2.1. Inhibition of bronchospasm:
Guinea pigs are anaesthetised with pentobarbital (30 mg/kg i.p.) and phenobarbital (100 mg/kg i.p.) and ventilated via a tracheal cannula (10 ml/kg, 1 Hz). Ventilation is monitored either by a pressure transducer measuring air-flow (Konzett-Rossler method), or by a Fleisch flow transducer in line with the inspiratory circuit. When making measurements of flow, coincident pressure changes in the thorax are monitored directly via an intrathoracic trochar, permitting display of differential pressure relative to the trachea. From this information resistance and compliance are calculated at each inspiration.
Intravenous injection of bombesin (ca. […]) as a bolus, induces increased airways resistance Wilich is sustained over a period of several minutes. Capacity of test-substance to reverse response when administered i.v. at the height of bombesin-induced bronchospasm serves as a measure of efficacy in reversing established bronchospasm.

[3] = test system: Isolated guineα-pig trachea; experiment: Bronchospasmolytic activity in vitro: isolated guinea-pig trachea (A.1.1); conditions: Cavia porcellus
Method: 1.1. Isolated guineα-pig trachea:
as §1

Structure (SMILES): COCCn1c(NC(CO)c2ccc(OC)c(OC)c2)nc2c1c(=O)n(C)c(=O)n2C (stereo not shown) [Example 7]
- EC50 (Isolated human bronchus): 1200 nM

Structure (SMILES): COCCn1c(N[C@@H](CO)c2ccc(OC)c(OC)c2)nc2c1c(=O)n(C)c(=O)n2C [Example 22]
- level of activity in animal models [1]: higher level of activity
- ED50 [2]: 0.03 to 0.09 mg/kg
- EC50 ([3]; basal tone, read-out: EC50, relaxation of tracheal rings, basal tone): 860 nM
- EC50 ([3]; in the presence of carbachol (10^-6 M), read-out: EC50, relaxation of tracheal rings, carbachol): 19000 nM
- EC50 ([3]; in the presence of histamine (10^-4 M), read-out: EC50, relaxation of tracheal rings, histamine): 170 nM

Structure (SMILES): COCCn1c(N[C@@H](COC)c2ccc(OC)c(OC)c2)nc2c1c(=O)n(C)c(=O)n2C [Example 24]
- level of activity in animal models [1]: higher level of activity
